Results: article PMC13289949 (Biochemistry, 2025)
Where two headings read alike, the source gives them in different places.

What was measured:
MtbFDTS [1] = target: T1, MtbFDTS (Mycobacterium tuberculosis, UniProt P9WG57); assay: MtbFDTS oxidase reaction followed by NADPH consumption; format: biochemical; conditions: for effect on the oxidase reaction (NADPH oxidation rate), in words: aerobic, no CH2H4folate, ligand up to 250 μM; for increase in the rate of NADPH consumption: relative to control without ligand, >10× KACT, up to 250 μM ligand
T1 sequence (P9WG57 whole entry): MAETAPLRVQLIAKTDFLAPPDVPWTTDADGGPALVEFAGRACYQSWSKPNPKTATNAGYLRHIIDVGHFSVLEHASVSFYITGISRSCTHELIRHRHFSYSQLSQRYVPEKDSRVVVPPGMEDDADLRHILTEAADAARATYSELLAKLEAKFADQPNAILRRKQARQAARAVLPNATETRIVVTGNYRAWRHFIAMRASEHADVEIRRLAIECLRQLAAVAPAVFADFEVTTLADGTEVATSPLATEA

FAD-MtbFDTS complex = FAD-MtbFDTS complex (Mycobacterium tuberculosis, UniProt P9WG57); assay: biochemical; format: binding
FAD-MtbFDTS complex, sequence (P9WG57 whole entry, one chain of several): as the sequence (P9WG57 whole entry) above

MtbFDTS [2] = target: T1, MtbFDTS; assay: Hydrogen peroxide formation from MtbFDTS oxidase reaction; format: biochemical; conditions: NADPH and 100 μM plumbagin versus NADPH only

Nc1nc(=O)c2c([nH]1)NCC(CNc1ccc(C(=O)N[C@@H](CCC(=O)O)C(=O)O)cc1)N2C=O (mixture of isomers) [folinic acid]
effect on the oxidase reaction (NADPH oxidation rate), in words (MtbFDTS [1]): display inhibition | Kd (FAD-MtbFDTS complex; read-out: apparent Kd, binding to the FAD-MtbFDTS complex): 1300 ± 200 nM | affinity of folinic acid for the dUMP-FAD-MtbFDTS ternary complex, in words (FAD-MtbFDTS complex; saturating concentration of dUMP, compared with FAD-MtbFDTS): much higher affinity

Cc1cn([C@H]2C[C@H](O)[C@@H](COP(=O)(O)O)O2)c(=O)[nH]c1=O [dTMP, 2′-deoxythymidine-5′-monophosphate]
effect on the oxidase reaction (NADPH oxidation rate), in words (MtbFDTS [1]): activated

O=c1[nH]c(=O)n([C@H]2C[C@H](O)[C@@H](COP(=O)(O)O)O2)cc1F [5-FdUMP, 5-fluoro-deoxyuridylate]
affinity to the FAD-MtbFDTS complex, in words (FAD-MtbFDTS complex; compared with dUMP): less affinity

CN(Cc1cnc2nc(N)nc(N)c2n1)c1ccc(C(=O)N[C@@H](CCC(=O)O)C(=O)O)cc1 [methotrexate]
effect on the oxidase reaction (NADPH oxidation rate), in words (MtbFDTS [1]): display inhibition

5-hydroxy-2,4-naphthoquinone [plumbagin]
increase in the rate of NADPH consumption (MtbFDTS [1]): 5–10 fold | rate increase of hydrogen peroxide formation (initial velocity) (MtbFDTS [2]): ~10 fold

O=C1C=C(O)C(=O)c2ccccc21 [lawsone, 2-hydroxy-1,4-naphthoquinone]
increase in the rate of NADPH consumption (MtbFDTS [1]): 5–10 fold

O=c1ccn([C@H]2C[C@H](O)[C@@H](COP(=O)(O)O)O2)c(=O)[nH]1 [dUMP, 2′-deoxyuridine-5′-monophosphate]
effect on the oxidase reaction (NADPH oxidation rate), in words (MtbFDTS [1]): increase in rate | Kd (FAD-MtbFDTS complex): 1100 ± 500 nM
